Test results reported in patent US9718832B2, “Hexahydrofuropyrroles as PDE1 inhibitors” (H. Lundbeck A/S, priority 2014, dated 2017).

How the values were obtained:
Type in all cases: biochemical
Conditions in all cases: 15 nM tritium labelled cAMP, 1 h at room temperature, SPA beads
PDE1C = PDE1C (Homo sapiens, UniProt Q14123); test: PDE1 inhibition assay (PDE1C)
Experimental: (§1) PDE1A, PDE1B and PDE1C assays were performed as follows: the assays was performed in 60 μL samples containing a fixed amount of the PDE1 enzym1 (sufficient to convert 20-25% of the cyclic nucleotide substrate), a buffer (50 mM HEPES pH 7.6; 10 mM MgCl2; 0.02% Tween20), 0.1 mg/ml BSA, 15 nM tritium labelled cAMP and varying amounts of inhibitors. Reactions were initiated by addition of the cyclic nucleotide substrate, and reactions were allowed to proceed for 1 h at room temperature before being terminated through mixing with 20 μL (0.2 mg) yttrium silicate SPA beads (PerkinElmer). The beads were allowed to settle for 1 h in the dark before the plates were counted in a Wallac 1450 Microbeta counter. The measured signals were converted to activity relative to an uninhibited control (100%) and IC50 values were calculated using XIFit (model 205, IDBS).

PDE1B = PDE1B (Homo sapiens, UniProt Q01064); test: PDE1 inhibition assay (PDE1B)
Experimental: as §1

PDE1A = PDE1A (Homo sapiens, UniProt P54750); test: PDE1 inhibition assay (PDE1A)
Experimental: as §1

Sequence of PDE1A (P54750 whole entry): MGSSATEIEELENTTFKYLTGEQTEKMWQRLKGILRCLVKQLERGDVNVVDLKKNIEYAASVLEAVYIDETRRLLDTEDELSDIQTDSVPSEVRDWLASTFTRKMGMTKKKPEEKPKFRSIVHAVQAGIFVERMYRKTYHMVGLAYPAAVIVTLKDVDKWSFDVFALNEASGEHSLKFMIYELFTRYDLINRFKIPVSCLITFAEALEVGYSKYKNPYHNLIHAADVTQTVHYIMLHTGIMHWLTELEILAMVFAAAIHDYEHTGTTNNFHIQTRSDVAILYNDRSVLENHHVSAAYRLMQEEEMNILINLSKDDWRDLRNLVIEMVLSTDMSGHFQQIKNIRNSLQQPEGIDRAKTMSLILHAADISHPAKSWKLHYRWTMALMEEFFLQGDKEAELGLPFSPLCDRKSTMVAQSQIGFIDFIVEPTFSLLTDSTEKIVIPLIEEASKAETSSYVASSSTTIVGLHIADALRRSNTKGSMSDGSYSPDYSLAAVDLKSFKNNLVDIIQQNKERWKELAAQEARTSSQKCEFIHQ
Sequence of PDE1B (Q01064 whole entry): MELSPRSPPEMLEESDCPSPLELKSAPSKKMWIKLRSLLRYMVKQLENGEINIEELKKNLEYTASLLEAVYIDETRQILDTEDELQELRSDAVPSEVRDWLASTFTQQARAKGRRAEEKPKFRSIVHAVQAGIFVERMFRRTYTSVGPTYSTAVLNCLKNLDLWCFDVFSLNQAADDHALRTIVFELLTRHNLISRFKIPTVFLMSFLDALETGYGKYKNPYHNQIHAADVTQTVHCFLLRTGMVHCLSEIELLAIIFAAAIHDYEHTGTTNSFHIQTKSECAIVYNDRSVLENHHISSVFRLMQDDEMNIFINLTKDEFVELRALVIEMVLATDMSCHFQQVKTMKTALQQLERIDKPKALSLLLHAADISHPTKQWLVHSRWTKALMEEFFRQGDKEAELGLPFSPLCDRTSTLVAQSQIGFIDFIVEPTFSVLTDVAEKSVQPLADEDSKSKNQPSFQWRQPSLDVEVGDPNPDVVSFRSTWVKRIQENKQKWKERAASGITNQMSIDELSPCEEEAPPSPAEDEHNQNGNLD
Sequence of PDE1C (Q14123 whole entry): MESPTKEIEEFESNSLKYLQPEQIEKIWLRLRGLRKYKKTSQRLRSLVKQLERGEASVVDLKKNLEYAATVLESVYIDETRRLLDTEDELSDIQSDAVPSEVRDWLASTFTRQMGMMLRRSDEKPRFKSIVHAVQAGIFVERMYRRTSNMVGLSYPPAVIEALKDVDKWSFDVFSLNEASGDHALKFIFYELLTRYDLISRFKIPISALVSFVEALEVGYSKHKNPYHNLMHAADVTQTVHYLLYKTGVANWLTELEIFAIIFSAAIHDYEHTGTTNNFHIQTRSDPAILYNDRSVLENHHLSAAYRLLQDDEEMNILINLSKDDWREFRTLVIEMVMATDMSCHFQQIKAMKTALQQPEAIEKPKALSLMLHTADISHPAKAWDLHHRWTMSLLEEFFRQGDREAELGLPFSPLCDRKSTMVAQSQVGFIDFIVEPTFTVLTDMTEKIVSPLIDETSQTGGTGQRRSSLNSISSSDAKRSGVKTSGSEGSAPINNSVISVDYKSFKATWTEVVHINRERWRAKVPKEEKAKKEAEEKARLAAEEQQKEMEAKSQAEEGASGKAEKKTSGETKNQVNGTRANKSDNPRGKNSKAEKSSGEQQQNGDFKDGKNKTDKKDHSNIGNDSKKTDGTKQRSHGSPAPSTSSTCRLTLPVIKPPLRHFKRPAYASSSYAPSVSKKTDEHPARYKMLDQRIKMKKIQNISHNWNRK

Q: How did the IC50 (PDE1C) turn out when `COc1ccc2c(N3CC[C@@H]4OCC[C@@H]43)ncnc2c1OC` (single isomer, unassigned) [Compound 1] was run?
A: 120 nM

Q: And the IC50 (PDE1B)?
A: 120 nM

Q: What about the IC50 (PDE1A) of the same compound?
A: 160 nM

Q: What does the source list for `COc1ccc2c(N3CC[C@H]4OCC[C@H]43)ncnc2c1OC` (single isomer, unassigned) [Compound 2]?
A: IC50 (PDE1C): 2800 nM; IC50 (PDE1B): 3700 nM; IC50 (PDE1A): 3200 nM
